Test results as given in the CheMixHub viscosity set.

Assay: xn = mol fraction of the nth substance listed

[Cl-].[Cl-].[Cl-].[Cl-].[Ge+4] + CSC
293.15 K, 101 kPa
Conditions | viscosity [mPa·s]
x2 = 0.203 | 0.526
x2 = 0.3575 | 0.483
x2 = 0.4983 | 0.433
x2 = 0.6857 | 0.379
x2 = 0.8554 | 0.328

CC(F)F + FCC(F)(F)F
viscosity [mPa·s], 101 kPa
Conditions | x1 = 0.259 | x1 = 0.5 | x1 = 0.75
298.15 K | 0.1801 | 0.1772 | 0.1647
313.15 K | 0.1504 | 0.1444 | 0.1397

O=C(O)CCC(=O)O + CO
viscosity [mPa·s], 101 kPa
Conditions | 308.15 K | 313.15 K | 318.15 K | 323.15 K
x1 = 0.04258 | 0.8055 | 0.7491 | 0.6981 | 0.646
x1 = 0.05573 | 0.9556 | 0.887 | 0.8175 | 0.7603

CCCCCCCCCCCCCCCCCC(=O)OC + CCCCCC
viscosity [mPa·s], 101 kPa
Conditions | x1 = 0.05 | x1 = 0.1 | x1 = 0.15 | x1 = 0.2 | x1 = 0.25 | x1 = 0.3
298 K | 0.48 | 0.67 | 0.85 | 1.08 | 1.22 | 1.41
303 K | 0.46 | 0.63 | 0.79 | 0.99 | 1.13 | 1.3
308 K | 0.44 | 0.59 | 0.74 | 0.92 | 1.05 | 1.21
313 K | 0.42 | 0.55 | 0.69 | 0.85 | 0.98 | 1.12

CCCCCCCCN + CCN(CC)CC
viscosity [mPa·s], 101.33 kPa
Conditions | x2 = 0.1056 | x2 = 0.2038 | x2 = 0.4151 | x2 = 0.4978 | x2 = 0.6055 | x2 = 0.8063 | x2 = 0.9007
303.15 K | 1.021 | 0.9064 | 0.7044 | 0.6396 | 0.5641 | 0.4488 | 0.4031
313.15 K | 0.8659 | 0.7719 | 0.6062 | 0.5533 | 0.4916 | 0.3975 | 0.3611

Cc1ccc(C)cc1 + COC(=O)OC
298.15 K, 101.3 kPa
Conditions | viscosity [mPa·s]
x2 = 0.1097 | 0.592
x2 = 0.1824 | 0.591
x2 = 0.2345 | 0.59
x2 = 0.2757 | 0.589
x2 = 0.3294 | 0.586
x2 = 0.3683 | 0.586
x2 = 0.5137 | 0.588
x2 = 0.6046 | 0.588
x2 = 0.7164 | 0.59
x2 = 0.8442 | 0.587

c1ccc(Nc2ccccc2)cc1 + CCN(CC)c1ccccc1
viscosity [mPa·s], 101 kPa
Conditions | x1 = 0.1169 | x1 = 0.2161 | x1 = 0.4308 | x1 = 0.5654 | x1 = 0.6688 | x1 = 0.7545 | x1 = 0.8327 | x1 = 0.949
298.15 K | 2.41 | 2.98 | 4.63 | 6.52 | 8.13 | – | – | –
323.15 K | 1.35 | 1.58 | 2.22 | 2.9 | 3.31 | 3.82 | 4.49 | 5.4

O=C([O-])CC(O)(CC(=O)[O-])C(=O)[O-].[Na+].[Na+].[Na+] + O
viscosity [mPa·s]
Conditions | 293.15 K | 298.15 K | 303.15 K
101 kPa, x1 = 0.0013 | – | 0.94 | –
101 kPa, x1 = 0.0025 | – | 1.033 | –
101 kPa, x1 = 0.0052 | – | 1.126 | –
101 kPa, x1 = 0.0067 | – | 1.21 | –
101 kPa, x1 = 0.0146 | – | 1.805 | –
101 kPa, x1 = 0.0243 | – | 3.067 | –
101 kPa, x1 = 0.0364 | – | 5.952 | –
101 kPa, x1 = 0.0518 | – | 9.7 | –
101.33 kPa, x1 = 0.002 | 1.087 | 0.959 | 0.859
101.33 kPa, x1 = 0.0054 | 1.327 | 1.168 | 1.043
101.33 kPa, x1 = 0.0093 | 1.67 | 1.466 | 1.305
101.33 kPa, x1 = 0.0126 | 2.033 | 1.78 | 1.58
101.33 kPa, x1 = 0.0165 | 2.569 | 2.242 | 1.984
101.33 kPa, x1 = 0.0196 | 3.097 | 2.696 | 2.379
101.33 kPa, x1 = 0.0232 | 3.855 | 3.346 | 2.944
101.33 kPa, x1 = 0.0269 | 4.836 | 4.185 | 3.67
101.33 kPa, x1 = 0.0297 | 5.748 | 4.963 | 4.341
101.33 kPa, x1 = 0.0335 | 7.277 | 6.263 | 5.46
101.33 kPa, x1 = 0.0366 | 8.834 | 7.583 | 6.593

CC(C)CCCC(C)CCCC(C)CCCCC(C)CCCC(C)CCCC(C)C (stereo not drawn) + CCCCCCCCCCCCCCCC
298.15 K, 101.33 kPa
Conditions | viscosity [mPa·s]
x2 = 0.045 | 26.05
x2 = 0.099 | 23.59
x2 = 0.1473 | 21.54
x2 = 0.2008 | 19.45
x2 = 0.2977 | 16.16
x2 = 0.4495 | 11.84
x2 = 0.6011 | 8.569
x2 = 0.8001 | 5.307

CCCCCCCCCCCCO + CCCCCCC
viscosity [mPa·s], 101.33 kPa
Conditions | 298.15 K | 308.15 K
x1 = 0.0343 | 0.4411 | 0.3932
x1 = 0.0687 | 0.514 | 0.4523
x1 = 0.1389 | 0.7038 | 0.6054
x1 = 0.2173 | 0.9825 | 0.8279
x1 = 0.2965 | 1.372 | 1.126
x1 = 0.392 | 2.04 | 1.632
x1 = 0.4898 | 2.746 | 2.224
x1 = 0.5941 | 4.056 | 3.199
x1 = 0.7213 | 5.958 | 4.858
x1 = 0.7853 | 7.414 | 5.854
x1 = 0.8475 | 9.506 | 7.073
x1 = 0.9227 | 11.73 | 8.856
